This is an account of results in patent EP2112152A1, “Dihydropteridinones as Plk Inhibitors” (GPC Biotech AG, priority 2008, dated 2009).

A value given as a limit tells only on which side of the number the result lay.

Common to all, as to assay type: cell-based
Test [1] deals with HCT 116. The experiment in a line: SRB cell proliferation assay, HCT 116. As to conditions: Homo sapiens, HCT-116, 72 h, 72 hours, SRB assay; read-out: CELLULAR IC50 HCT 116. Here is the method:
(§1) We observed the surprising finding that compounds of the invention were useful in inhibiting proliferation of tumor cell lines (see Table 3).
(§2) Cells were exposed to the test compounds at various concentrations appropriate to determine an IC50 for 72 hours. Cell proliferation was measured using the SRB assay according to Shekan et al (J Natl Cancer Inst (1990) 82, 1107-112) in order to estimate the IC50 values shown in Table 3. Briefly, cells were plated in 96 well dishes 24 hours prior to compound addition at the densities specified in Table 5.1. The assay was terminated with the addition of cold TCA to a final concentration of 10% after growth medium has been removed and the plates were incubated over night at 4°C. The plates were then washed 5 times with water and 100µl of a Sulforhodamine B solution (4%) was added to each well. The plates were then incubated for 10 minutes at room temperature before removal of unbound dye by washing with 1% acetic acid. The bound dye was solubilised with 10 mM Trizma base and the absorbance read at OD520.
(§3) Inhibitory activity of the compounds (IC) was calculated as % inhibition of cell proliferation compared to cells treated with the solvent (DMSO).
(§4) Table 8.1: 18-Cell Line Panel
(In general: The SRB assay estimates cell density from bound dye.)

The test system of test [2] is IMR-90. The experiment in a line: SRB cell proliferation assay, IMR-90. As to conditions: Homo sapiens, 72 hours, SRB assay, slow cycling cell line, read-out: CELLULAR IC50 IMR-90. Here is the method:
as §1, §2, §3, §4

Test [3] concerns HT-29. The test is described as follows: SRB cell proliferation assay, HT-29. The following applies: Homo sapiens, HT-29, 72 h, 72 hours, SRB assay; read-out: CELLULAR IC50 HT-29. The protocol:
as §1, §2, §3, §4

Test [4] has as its target Plk1 (Homo sapiens, UniProt P53350). The experiment in a line: Cellular Plk1 kinase activity: nucleophosmin (B23) Ser4 phosphorylation in HCT116 cells (MSD electrochemiluminescence). Further details: host or cells: HCT116. The following applies: 100 ng/ml nocodazole, 4 hours after compound addition, read-out: Biochemical IC50 Nucleophosmin assay. The protocol: We observed the surprising finding that compounds of the invention were able to penetrate cell membranes and retained their activity as Plk1 inhibitors against native Plk1 expressed within living cancer cells.
Cellular Plk1 kinase activity was measured by quantification of nucleophosmin (B23) Ser4 phosphorylation in a cancer cell line. Nucleophosmin (B23) Ser4 is phosphorylated by Plk1, and this phosphorylation can be specifically detected by cross-reactivity of a phospho-Mek1/2 antibody that is able to recognizes a mitotic-specific phosphorylated form of nucleophosmin (B23) in a nocodazole dependent way (Zhang, H., Shi, X., Paddon, H., Hampong, M., Dai, W., and Pelech, S. (2004) B23/Nuleophosmin Serin 4 Phosphorylation Mediates Mitotic Functions of Polo-like Kinase 1. J. Biol. Chem., 279(34), 35726-35734).
Briefly, HCT116 cells (ATCC, Order No. CCL-247) were plated in 96 well dishes 24 hours prior to nocodazole treatment at 25 000 cells per well. Cells were then treated with 100 ng/ml nocodazole (Sigma-Aldrich, # M1404). 20 hours after nocodazole treatment, cells were exposed to the test compounds at various concentrations appropriate to determine an IC50. 4 hours after compound addition, medium was carefully removed and 120 µl of Complete Tris Lysis Buffer (R60TX; MSD, Gaithersburg MD) was added to each well. Samples were then stored at -20°C.
The level of nucleophosmin (B23) Ser4 phosphorylation in these cell lysis samples was estimated by electrochemiluminescence detection using the Meso Scale Discovery ("MSD") Technology Platform (MSD, Gaithersburg MD). The protocol used was as recommended by the manufacturer with the use of a phospho-Mek1/2 antibody (Cell Signalling, #9121) as primary antibody, and is as follows.
The cell lysates were thawed at room temperature and 40 µl were incubated on 96-well MULTI-ARRAY High Bind plates (L11XB; MSD) for 1.5 - 2 hours at room temperature. The supernatants were then removed and 150 µl of a 5% (w/v) solution of Blocker A (R93AA; MSD) in Tris Wash Buffer (R61TX; MSD) were added to each well. The plates were then incubated for 1 hour at room temperature before removal of the Blocker A solution and washed 4 times with 200 µl Tris Wash Buffer. 25 µl primary antibody (anti-phospho-MEK1/2, Cell Signalling, #9121, rabbit polyclonal), diluted 1:250 in a 1% (w/v) solution of Blocker A in Tris Wash Buffer, were added to each well. The plates were then incubated for 1 hour at room temperature before removal of the antibody solution and washed 4 times with 200 µl Tris Wash Buffer. Then, 25 µl of labelled secondary antibody (SULFO-TAG Goat Anti-Rabbit IgGAntibody (R32AB; MSD), diluted 1:500 in a 1% (w/v) solution of Blocker A in Tris Wash Buffer) were added to each well. The plates were then incubated for 1 hour at room temperature before removal of the antibody solution and washed 4 times with 200 µl Tris Wash Buffer. Then, […] of 1x Read Buffer T (R92TC; MSD) were carefully added to each well and the plates were quantitatively detected for each well with a SECTOR™ Imager 6000 (MSD).
Inhibitory activity of the compounds (IC) was calculated as % inhibition of nucleophosmin (B23) Ser4 phosphorylation compared to cells not treated with nocodazole.

Sequence of Plk1 (P53350 whole entry, species assumed): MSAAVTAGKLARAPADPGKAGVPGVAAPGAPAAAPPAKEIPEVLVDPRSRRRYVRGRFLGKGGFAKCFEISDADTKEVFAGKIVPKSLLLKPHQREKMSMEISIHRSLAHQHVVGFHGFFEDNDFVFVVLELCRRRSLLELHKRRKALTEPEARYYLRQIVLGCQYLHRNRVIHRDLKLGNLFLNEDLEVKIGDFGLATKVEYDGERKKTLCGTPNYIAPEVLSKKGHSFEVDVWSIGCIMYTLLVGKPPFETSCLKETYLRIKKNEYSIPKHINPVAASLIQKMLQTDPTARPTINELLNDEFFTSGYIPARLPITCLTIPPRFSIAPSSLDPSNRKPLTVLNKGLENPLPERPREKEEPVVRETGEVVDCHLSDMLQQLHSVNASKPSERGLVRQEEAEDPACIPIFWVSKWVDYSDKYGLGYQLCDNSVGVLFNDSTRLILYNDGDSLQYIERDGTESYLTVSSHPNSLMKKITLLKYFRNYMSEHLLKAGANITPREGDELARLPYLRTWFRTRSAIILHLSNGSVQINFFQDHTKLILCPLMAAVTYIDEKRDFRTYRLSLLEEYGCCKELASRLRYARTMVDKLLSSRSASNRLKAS

`CCCN(C)N1c2nc(Nc3ccc(C(=O)N[C@H]4CC[C@H](N5CCN(CC6CC6)CC5)CC4)cc3OC)ncc2N(C)C(=O)C1CC` (relative stereo) [Compound 19, N-[trans-4-(4-Cyclopropylmethyl-piperazin-1-yl)-cyclohexyl]-4-[7-ethyl-5-methyl-8-(methyl-propyl-amino)-6-oxo-5,6,7,8-tetrahydro-pteridin-2-ylamino]-3-methoxy-benzamide]: the half-inhibitory concentration (IC50) (commonly the concentration needed to halve the response being measured) in test [1] was under 1 µM; in test [2], over 1 µM; in test [3], under 1 µM; in test [4], under 0.1 µM.
As for `CCC1C(=O)N(C)c2cnc(Nc3ccc(C(=O)N[C@H]4CC[C@H](N5CCN(CC6CC6)CC5)CC4)cc3OC)nc2N1N(C)CC1CC1` (relative stereo) [Compound 18, 4-[8-(Cyclopropylmethyl-methyl-amino)-7-ethyl-5-methyl-6-oxo-5,6,7,8-tetrahydro-pteridin-2-ylamino]-N-[trans-4-(4-cyclopropylmethyl-piperazin-1-yl)-cyclohexyl]-3-methoxy-benzamide], the half-inhibitory concentration (IC50) in test [1] is under 1 µM; in test [2], over 1 µM; in test [3], under 1 µM; in test [4], under 0.5 µM.
In the case of “N-(2-Diethylamino-ethyl)-4-(8-dimethylamino-7-ethyl-5-methyl-6-oxo-5,6,7,8-tetrahydro-pteridin-2-ylamino)-3-methoxy-benzamide [Compound 5]”, in test [4], the half-maximal inhibitory concentration (IC50) was under 0.1 µM.
Consider `CCC1C(=O)N(C)c2cnc(Nc3ccc(C(=O)NC4CCN(C)CC4)cc3OC)nc2N1N(C)CC(C)C` (centres unmarked) [Compound 22, 4-[7-Ethyl-8-(isobutyl-methyl-amino)-5-methyl-6-oxo-5,6,7,8-tetrahydro-pteridin-2-ylamino]-3-methoxy-N-(1-methyl-piperidin-4-yl)-benzamide], for which the IC50 in test [1] is under 1 µM; in test [2], over 1 µM; in test [3] it was under 1 µM; in test [4], under 0.1 µM.
Turning to `CCC1C(=O)N(C)c2cnc(Nc3ccc(C(=O)NC4CCN(C)CC4)cc3OC)nc2N1NC` (centres unmarked) [Compound 30, 4-(7-Ethyl-5-methyl-8-methylamino-6-oxo-5,6,7,8-tetrahydro-pteridin-2-ylamino)-3-methoxy-N-(1-methyl-piperidin-4-yl)-benzamide], the concentration for half-maximal inhibition (IC50) in test [1] is under 1 µM; in test [2], over 1 µM; in test [3] it was under 1 µM; in test [4], under 0.1 µM.
As to `CCC1C(=O)N(C)c2cnc(Nc3ccc(C(=O)N[C@H]4CC[C@H](N5CCN(CC6CC6)CC5)CC4)cc3OC)nc2N1N(C)CC1CCCC1` (relative stereo) [Compound 28, 4-[8-(Cyclopentylmethyl-methyl-amino)-7-ethyl-5-methyl-6-oxo-5,6,7,8-tetrahydro-pteridin-2-ylamino]-N-[trans-4-(4-cyclopropylmethyl-piperazin-1-yl)-cyclohexyl]-3-methoxy-benzamide], the concentration for half-maximal inhibition (IC50) in test [1] is under 1 µM; in test [2] it was over 1 µM; in test [3], under 1 µM; in test [4], under 0.1 µM.
Regarding `CCC1C(=O)N(C)c2cnc(Nc3ccc(C(=O)NCCN4CCCC4)cc3OC)nc2N1N(C)C` (centres unmarked) [Compound 2, 4-(8-Dimethylamino-7-ethyl-5-methyl-6-oxo-5,6,7,8-tetrahydro-pteridin-2-ylamino)-3-methoxy-N-(2-pyrrolidin-1-yl-ethyl)-benzamide], the concentration for half-maximal inhibition (IC50) is under 1 µM in test [1], over 1 µM in test [2], under 1 µM in test [3] and under 0.1 µM in test [4].
Take “4-[8-(Cyclopentylmethyl-methyl-amino)-7-ethyl-5-methyl-6-oxo-5,6,7,8-tetrahydro-pteridin-2-ylamino]-N-(1-ethylpiperidin-4-ylmethyl)-3-methoxy-benzamide [Compound 29]”: the IC50 in test [4] was under 0.1 µM.
Regarding `CCC1C(=O)N(C)c2cnc(Nc3ccc(C(=O)NC4CCN(C(C)C)CC4)cc3OC)nc2N1N(C)C` (centres unmarked) [Compound 4, 4-(8-Dimethylamino-7-ethyl-5-methyl-6-oxo-5,6,7,8-tetrahydro-pteridin-2-ylamino)-N-(1-isopropyl-piperidin-4-yl)-3-methoxy-benzamide], the concentration for half-maximal inhibition (IC50) was under 1 µM in test [1], over 1 µM in test [2], under 1 µM in test [3] and under 0.1 µM in test [4].
For the compound `CCC1C(=O)N(C)c2cnc(Nc3ccc(C(=O)NC4CCN(C)CC4)cc3OC)nc2N1N(C)CC1CCCC1` (centres unmarked) [Compound 27, 4-[8-(Cyclopentylmethyl-methyl-amino)-7-ethyl-5-methyl-6-oxo-5,6,7,8-tetrahydro-pteridin-2-ylamino]-3-methoxy-N-(1-methyl-piperidin-4-yl)-benzamide], the concentration for half-maximal inhibition (IC50) in test [1] was under 1 µM; in test [2], over 1 µM; in test [3], under 1 µM; in test [4], under 0.1 µM.
On to “4-[8-(Cyclobutylmethyl-methyl-amino)-7-ethyl-5-methyl-6-oxo-5,6,7,8-tetrahydro-pteridin-2-ylamino]-N-[trans-4-(4-cyclopropylmethyl-piperazin-1-yl)-cyclohexyl]-3-methoxy-benzamide [Compound 35]”, for which the IC50 in test [4] was under 0.5 µM.
Same read-out and setting: with “N-(2-Diisopropylamino-ethyl)-4-(8-dimethylamino-7-ethyl-5-methyl-6-oxo-5,6,7,8-tetrahydro-pteridin-2-ylamino)-3-methoxy-benzamide [Compound 7]” the figure was under 0.1 µM.
On the same count and under the same terms, the result for “4-(8-Dimethylamino-7-ethyl-5-methyl-6-oxo-5,6,7,8-tetrahydro-pteridin-2-ylamino)-3-methoxy-N-[4-(4-methyl-piperazin-1-yl)-phenyl]-benzamide [Compound 8]” reads under 0.1 µM; that for “4-(8-Dimethylamino-7-ethyl-5-methyl-6-oxo-5,6,7,8-tetrahydro-pteridin-2-ylamino)-3-methoxy-N-(2-piperidin-1-yl-ethyl)-benzamide [Compound 6]”, under 0.1 µM; that for “4-(8-Dimethylamino-7-ethyl-5-methyl-6-oxo-5,6,7,8-tetrahydro-pteridin-2-ylamino)-3-methoxy-N-(4-piperidin-1-ylmethyl-phenyl)-benzamide [Compound 10]”, under 0.1 µM.
Consider “4-(8-Dimethylamino-7-ethyl-5-methyl-6-oxo-5,6,7,8-tetrahydro-pteridin-2-ylamino)-N-[4-(4-ethyl-piperazin-1-yl)-phenyl]-3-methoxy-benzamide [Compound 9]”, for which the IC50 in test [4] was under 0.1 µM.
Same read-out and setting: with `CCC1C(=O)N(C)c2cnc(Nc3ccc(C(=O)NC4CCN(C)CC4)cc3OC)nc2N1N(C)C` (single isomer, unassigned) [Compound 37, 4-(8-dimethylamino-7-ethyl-5-methyl-6-oxo-5,6,7,8-tetrahydro-pteridin-2-ylamino)-3-methoxy-N-(1-methyl-piperidin-4-yl)-benzamide] the figure was under 0.1 µM.
